Reference: patent US4253997A, “Anti-ovulatory decapeptides” (American Home Products Corporation, priority 1979, dated 1981)

Columns and labels:
[1] = test system: ovulation; test: Anti-ovulatory activity in proestrus rats (oviducts inspected for ova); assay type: in vivo, Sprague-Dawley CD rats; details: single administration at 1200 hours of proestrus
Protocol: The product of Example 2 was injected subcutaneously, in corn oil, as a single administration at 1200 hours on the day of proestrus (at least 2.5 hours prior to the commencement of the ovulatory LH surge). The rats were sacrificed on the morning of estrus (the day following proestrus) and the oviducts were inspected for the presence of ova under a dissecting microscope. The number of animals ovulating and the percent inhibition were as follows: […]

[2] = test system: leuteinizing hormone (LH) release; details: LH-RH = 100 percent; cited from earlier work
[3] = test system: LH-RH; details: in vitro; cited from earlier work
[4] = test system: ovulation; details: administered at noon of proestrus; cited from earlier work

D-(5-Oxoprolyl)-D-phenylalanyl-D-3-(1-naphthyl)-alanyl-L-seryl-L-tyrosyl-D- 3-(1-naphthyl)-alanyl-L-leucyl-L-arginyl-L-prolyl-glycine acetate salt [Example 2]
number of animals ovulating ([1]; 375 μg s.c. in corn oil): 5/6 | percent inhibition of ovulation ([1]; 375 μg s.c. in corn oil): 17% | number of animals ovulating ([1]; 500 μg s.c. in corn oil): 6/20 | percent inhibition of ovulation ([1]; 500 μg s.c. in corn oil): 70% | number of animals ovulating ([1]; 1000 μg s.c. in corn oil): 1/14 | percent inhibition of ovulation ([1]; 1000 μg s.c. in corn oil): 93%

Nal(1)^3 -LH-RH
potency as LH releasing agent relative to LH-RH [2]: 187.1%

[D-pGlu^1, D-Phe^2, D-Trp^3,6 ]-LH-RH
IDR50 (inhibitory molar dose ratio antagonist/LH-RH) [3]: 3/1 | effective dose for in vivo inhibition of ovulation [4]: 20 to 25 mg
